These results are taken from patent US8183252B2, “Heterocyclic aspartyl protease inhibitors” (Schering Corporation, priority 2007, dated 2012).

SMILES strings stand for the structures. Like-named read-outs stand apart in the source and are kept apart here. Some results are limits rather than exact numbers.

For one experiment, the target named is T1, human liver Cathepsin D (Homo sapiens, UniProt P07339).
T1 construct: Purified (>95%) human liver Cathepsin D; purchased Athens Research & Technology 16-12-030104; host or cells: human liver (tissue-derived)
T1 sequence (P07339 65-161 limits assumed): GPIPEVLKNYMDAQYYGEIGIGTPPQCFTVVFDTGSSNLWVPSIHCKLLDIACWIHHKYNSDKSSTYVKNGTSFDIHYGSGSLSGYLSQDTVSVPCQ
T1 sequence (P07339 169-412 limits assumed): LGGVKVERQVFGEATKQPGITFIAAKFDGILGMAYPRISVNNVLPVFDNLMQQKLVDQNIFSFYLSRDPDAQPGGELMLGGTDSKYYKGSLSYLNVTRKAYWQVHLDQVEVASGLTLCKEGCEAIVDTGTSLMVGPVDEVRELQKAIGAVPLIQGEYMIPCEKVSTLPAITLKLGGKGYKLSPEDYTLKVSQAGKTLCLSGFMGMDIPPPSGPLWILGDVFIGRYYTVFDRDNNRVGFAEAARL
The experiment in a line: Human Cathepsin D FRET Assay. The class given is biochemical. Here is the method: This assay can be run in either continuous or endpoint format. […] Substrate and enzyme are commercially available.
The assay is run in a 30 ul final volume using a 384 well Nunc black plate. 8 concentrations of compound are pre-incubated with enzyme for 30 mins at 37 C followed by addition of substrate with continued incubation at 37 C for 45 mins. The rate of increase in fluorescence is linear for over 1 h and is measured at the end of the incubation period using a Molecular Devices FLEX station plate reader.
Compound is diluted to 3× final concentration in assay buffer containing 3% DMSO. […] 10 ul of substrate is added to each well mixed and spun briefly to initiate the reaction.

For a further experiment, the target named is T2, Mature human Renin (Homo sapiens, UniProt P00797).
T2 construct: The prodomain of the recombinant human renin-V5-6His was removed by limited proteolysis using immobilized TPCK-trypsin to give mature-human renin; V5 (C); 6His (C); made in house
T2 sequence (P00797 67-406): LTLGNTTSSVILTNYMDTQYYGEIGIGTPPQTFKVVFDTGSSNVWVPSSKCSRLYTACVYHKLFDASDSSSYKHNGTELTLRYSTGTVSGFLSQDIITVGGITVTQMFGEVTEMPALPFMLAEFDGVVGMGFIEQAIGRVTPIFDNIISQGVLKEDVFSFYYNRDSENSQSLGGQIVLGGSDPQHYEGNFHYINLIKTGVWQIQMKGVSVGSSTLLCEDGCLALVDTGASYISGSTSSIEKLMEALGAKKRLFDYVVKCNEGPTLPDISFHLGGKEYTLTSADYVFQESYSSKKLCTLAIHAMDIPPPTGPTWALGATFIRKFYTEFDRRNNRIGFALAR
The experiment in a line: Human Mature Renin Enzyme Assay (FRET). The class given is biochemical. Particulars: 100 μM compound; percent decrease in renin induced fluorescence after 40 min at 30 degrees celsius. An excerpt: Human Renin was cloned from a human kidney cDNA library and C-terminally epitope-tagged with the V5-6His sequence into pCDNA3.1. pCNDA3.1-Renin-V5-6His was stably expressed in HEK293 cells and purified to >80% using standard Ni-Affinity chromatography. The prodomain of the recombinant human renin-V5-6His was removed by limited proteolysis using immobilized TPCK-trypsin to give mature-human renin. Renin enzymatic activity was monitored using a commercially available fluorescence resonance energy transfer (FRET) peptide substrate, RS-1 (Molecular Probes, Eugene, Oreg.) in 50 mM Tris-HCl pH 8.0, 100 mM NaCl, 0.1% Brij-35 and 5% DMSO buffer for 40 mins at 30 degrees celsius in the presence or absence of different concentrations of test compounds. Mature human Renin was present at approximately 200 nM. Inhibitory activity was defined as the percent decrease in renin induced fluorescence at the end of the 40 min incubation compared to vehicle controls and samples lacking enzyme.

The mark [1] stands for this setting: compounds listed as exhibiting hCathD Ki under 75 nM, Ki interpolated from IC50, Km 4 uM, substrate 2.5 uM.

Take `Cc1ccccc1CN1C(=N)N[C@](CCC2CCCCC2)(CC2CCCCC2)C1=O`: the inhibition constant Ki on human liver Cathepsin D (setting [1]) was less than 75 nM.

`N=C1N[C@](CCC2CCCCC2)(CC2CCCCC2)C(=O)N1Cc1ccc(F)cc1Cl` returned a Ki on human liver Cathepsin D (setting [1]) of less than 75 nM. `CCCCc1cccc(C2(CCCC)NC(=N)N(CC3CCN(C(=O)COc4ccccc4)CC3)C2=O)c1` (centres unmarked) yielded a Ki at human liver Cathepsin D (setting [1]) of less than 75 nM. With `CN1C(=N)N[C@](CCC2CCCCC2)(C[C@H]2CCC[C@@H](Nc3cccnc3)C2)C1=O`, the “% inhibition of renin at 100 μM” value on Mature human Renin is reported as 68.8%.

As to `CCC[C@H]1CN(Cc2ccc(CN3C(=N)NC(CCC4CCCCC4)(CC4CCCCC4)C3=O)cc2)C(=O)N1` (some centres unmarked), the “% inhibition of renin at 100 μM” value on Mature human Renin worked out at 75.3%. Turning to `CCC[C@H]1CN(Cc2ccc(CN3C(=N)N[C@](CCC4CCCCC4)(CC4CCCCC4)C3=O)cc2)C(=O)N1`, the “% inhibition of renin at 100 μM” value on Mature human Renin was determined as 76.9%.

On human liver Cathepsin D (setting [1]), `N=C1N[C@](CCC2CCCCC2)(CC2CCCCC2)C(=O)N1Cc1ccc(Cl)cc1Cl` [drawing 4505] gave a Ki of less than 75 nM. As to `N=C1N[C@](CCC2CCCCC2)(CC2CCCCC2)C(=O)N1Cc1ccc(Cl)cc1Cl` [drawing 4522], the Ki on human liver Cathepsin D (Ki interpolated from IC50 using Km 4 uM and substrate 2.5 uM, read-out: hCathD Ki) came out at 0.45 nM.

What is called Ki is a dissociation constant, usually derived from enzyme kinetics or from competition with a known ligand.
